{"source": "ChEMBL document CHEMBL1201862", "about": "“PubChem BioAssay data set” (2004)", "key": {"[1]": {"target": "T1, Estrogen receptor (Homo sapiens, UniProt P03372)", "T1 sequence (P03372 whole entry)": "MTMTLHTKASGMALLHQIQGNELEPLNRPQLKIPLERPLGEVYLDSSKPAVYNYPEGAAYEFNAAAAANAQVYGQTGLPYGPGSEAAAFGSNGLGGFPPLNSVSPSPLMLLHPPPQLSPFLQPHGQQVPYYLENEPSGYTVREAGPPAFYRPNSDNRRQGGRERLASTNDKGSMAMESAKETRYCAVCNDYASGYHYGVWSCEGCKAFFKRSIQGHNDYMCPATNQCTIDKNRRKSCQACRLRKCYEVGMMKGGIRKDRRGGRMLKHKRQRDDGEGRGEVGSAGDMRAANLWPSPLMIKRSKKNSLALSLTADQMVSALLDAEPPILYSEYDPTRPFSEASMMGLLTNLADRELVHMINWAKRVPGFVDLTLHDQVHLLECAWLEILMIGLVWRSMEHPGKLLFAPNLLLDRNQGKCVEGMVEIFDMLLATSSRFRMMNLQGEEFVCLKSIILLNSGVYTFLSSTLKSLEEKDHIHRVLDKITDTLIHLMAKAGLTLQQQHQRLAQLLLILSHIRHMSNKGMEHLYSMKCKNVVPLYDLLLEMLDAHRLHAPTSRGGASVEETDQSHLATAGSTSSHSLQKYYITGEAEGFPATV"}, "[2]": {"target": "T2, Short transient receptor potential channel 4 (Mus musculus, UniProt Q9QUQ5)", "T2 sequence (Q9QUQ5 whole entry)": "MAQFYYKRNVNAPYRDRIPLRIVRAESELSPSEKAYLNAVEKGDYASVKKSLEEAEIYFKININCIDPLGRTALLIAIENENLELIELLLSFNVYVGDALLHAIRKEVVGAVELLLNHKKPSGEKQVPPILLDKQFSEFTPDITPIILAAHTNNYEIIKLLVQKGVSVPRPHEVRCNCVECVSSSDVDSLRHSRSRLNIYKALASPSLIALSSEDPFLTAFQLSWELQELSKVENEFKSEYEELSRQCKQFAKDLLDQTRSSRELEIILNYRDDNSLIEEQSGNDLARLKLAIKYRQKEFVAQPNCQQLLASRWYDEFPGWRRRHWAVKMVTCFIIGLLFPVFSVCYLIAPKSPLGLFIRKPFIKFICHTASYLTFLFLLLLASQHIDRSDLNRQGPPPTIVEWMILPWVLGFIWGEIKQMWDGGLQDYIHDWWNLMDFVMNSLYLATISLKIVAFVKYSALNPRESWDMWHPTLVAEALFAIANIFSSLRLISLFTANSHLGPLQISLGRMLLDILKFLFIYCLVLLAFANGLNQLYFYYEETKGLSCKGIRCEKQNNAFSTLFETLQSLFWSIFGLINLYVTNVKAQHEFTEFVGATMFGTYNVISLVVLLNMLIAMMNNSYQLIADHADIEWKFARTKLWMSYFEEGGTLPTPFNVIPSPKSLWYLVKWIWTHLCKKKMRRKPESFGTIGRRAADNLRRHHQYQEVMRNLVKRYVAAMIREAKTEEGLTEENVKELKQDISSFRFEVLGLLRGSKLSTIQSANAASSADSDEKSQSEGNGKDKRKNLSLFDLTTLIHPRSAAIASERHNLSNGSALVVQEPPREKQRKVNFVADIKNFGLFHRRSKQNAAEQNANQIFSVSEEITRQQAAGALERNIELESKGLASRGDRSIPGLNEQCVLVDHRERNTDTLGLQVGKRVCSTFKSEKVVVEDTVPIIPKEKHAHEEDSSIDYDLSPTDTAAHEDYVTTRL", "assay": "calcium entry via TRPC4 opening agents – cell-based, HEK293 TRPC4/mu-opioid, Fluo-4 calcium, dose response (AID 434937)", "format": "functional"}, "[3]": {"target": "T3, Lysine-specific demethylase 4C (Homo sapiens, UniProt Q9H3R0)", "T3 sequence (Q9H3R0 whole entry)": "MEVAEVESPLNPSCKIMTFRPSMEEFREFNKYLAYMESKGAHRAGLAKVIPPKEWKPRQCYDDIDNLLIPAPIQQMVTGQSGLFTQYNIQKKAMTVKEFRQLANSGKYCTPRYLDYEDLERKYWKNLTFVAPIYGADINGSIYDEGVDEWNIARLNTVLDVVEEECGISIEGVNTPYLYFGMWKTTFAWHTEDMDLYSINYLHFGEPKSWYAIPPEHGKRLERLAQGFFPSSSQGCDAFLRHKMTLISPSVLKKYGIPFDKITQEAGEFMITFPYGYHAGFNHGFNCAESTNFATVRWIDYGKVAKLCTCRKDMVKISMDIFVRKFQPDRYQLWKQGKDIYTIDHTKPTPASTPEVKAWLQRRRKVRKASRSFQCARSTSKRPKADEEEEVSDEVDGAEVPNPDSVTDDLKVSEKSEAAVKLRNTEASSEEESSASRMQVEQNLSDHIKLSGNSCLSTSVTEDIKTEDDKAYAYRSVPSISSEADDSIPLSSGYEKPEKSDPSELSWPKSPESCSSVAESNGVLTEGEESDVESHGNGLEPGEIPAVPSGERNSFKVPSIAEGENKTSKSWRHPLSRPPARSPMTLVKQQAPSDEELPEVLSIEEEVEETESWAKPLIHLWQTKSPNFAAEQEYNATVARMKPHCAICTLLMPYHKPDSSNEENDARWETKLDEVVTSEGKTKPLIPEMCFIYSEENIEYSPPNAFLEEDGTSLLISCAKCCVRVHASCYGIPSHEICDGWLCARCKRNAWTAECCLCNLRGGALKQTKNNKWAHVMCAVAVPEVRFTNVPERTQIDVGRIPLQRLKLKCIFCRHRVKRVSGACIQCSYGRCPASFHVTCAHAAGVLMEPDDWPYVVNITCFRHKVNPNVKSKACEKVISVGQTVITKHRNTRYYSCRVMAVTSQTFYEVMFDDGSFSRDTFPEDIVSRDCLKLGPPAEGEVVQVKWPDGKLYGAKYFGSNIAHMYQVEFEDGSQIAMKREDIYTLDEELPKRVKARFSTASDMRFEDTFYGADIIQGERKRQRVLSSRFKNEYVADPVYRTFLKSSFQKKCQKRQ", "assay": "inhibition of JMJD2C H3K9me3 demethylation – biochemical, DELFIA europium, cherry-picked samples, dose response (AID 488835)", "format": "functional"}, "[4]": {"assay": "THP-1 cell cytotoxicity, dose response, cytotoxicity control for non-replicating M. tuberculosis project (AID 489025)", "format": "functional"}, "[5]": {"assay": "HepG2 cell cytotoxicity, dose response, cytotoxicity control for non-replicating M. tuberculosis project (AID 489018)", "format": "functional", "conditions": "Mycobacterium tuberculosis"}, "[6]": {"assay": "Vero E6 cell cytotoxicity, dose response, cytotoxicity control for non-replicating M. tuberculosis project, secondary assay (AID 492998)", "format": "functional, VeroE6", "conditions": "Vero C1008"}, "[7]": {"assay": "cells", "format": "functional"}, "[8]": {"system": "INS1", "assay": "INS-1E survival protection against cytokine death – cell-based, luminescence, retest, dose response (AID 449756);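 also: cell death triggered by IL-1 beta plus TNF-alpha plus IFN-gamma mixture; protective hits raise ATP signal compared with cytokine alone wells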", "format": "functional", "conditions": "Rattus norvegicus"}, "[9]": {"assay": "A549 cell cytotoxicity, dose response, cytotoxicity control, plate reader, cherry-pick, antagonist series (AID 743412)", "format": "functional, cell-based"}, "[10]": {"assay": "toxicity toward HepG2 liver cells – cell-based, plate reader, cherry-pick, antagonist series, cytotoxicity control, dose response (AID 743416)", "format": "functional"}, "[11]": {"assay": "blockade of melanocortin 4 receptor signaling – cell-based, plate reader, cherry pick, counter-screen for LGR2 antagonist project, dose response (AID 743444);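 also: transfected HEK 293 cells stimulated with alpha-MSH peptide; potency of inhibitors of the alpha-MSH evoked signal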", "format": "functional"}, "[12]": {"assay": "viability loss in HEK293 cells – cell-based, plate reader, cherry-picked samples, cytotoxicity control, dose response (AID 743446)", "format": "functional"}, "[13]": {"target": "Troponin, cardiac muscle (Homo sapiens, UniProt P19429+P45379+P63316)", "assay": "Fluorescence-based biochemical high throughput dose response assay for activators of the calcium sensitivity of cardiac Regulated Thin Filaments (RTF). [Related pubchem assays (depositor defined):AID493008, AID493018, AID504382, AID504383]", "format": "protein-complex assay"}, "[14]": {"target": "Luciferin 4-monooxygenase (Photinus pyralis, UniProt P08659)", "sequence (P08659 whole entry)": "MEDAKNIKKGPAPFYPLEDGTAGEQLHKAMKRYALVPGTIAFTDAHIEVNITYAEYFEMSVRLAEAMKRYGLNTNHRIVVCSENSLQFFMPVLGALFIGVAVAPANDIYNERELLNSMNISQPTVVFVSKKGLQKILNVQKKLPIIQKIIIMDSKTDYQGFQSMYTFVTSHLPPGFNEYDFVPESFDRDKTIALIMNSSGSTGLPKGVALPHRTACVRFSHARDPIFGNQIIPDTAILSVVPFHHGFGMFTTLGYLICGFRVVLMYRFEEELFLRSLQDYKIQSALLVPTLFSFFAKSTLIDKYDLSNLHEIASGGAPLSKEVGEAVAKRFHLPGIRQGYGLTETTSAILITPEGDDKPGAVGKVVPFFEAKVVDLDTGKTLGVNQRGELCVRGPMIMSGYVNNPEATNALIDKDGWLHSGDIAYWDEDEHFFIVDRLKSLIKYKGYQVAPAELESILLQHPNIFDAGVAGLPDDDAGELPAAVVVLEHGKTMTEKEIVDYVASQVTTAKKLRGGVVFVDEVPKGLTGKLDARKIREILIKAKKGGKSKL", "assay": "Counter Screen for Luciferase-based Assay Positives. [Related pubchem assays: 620, 618, 411 ]"}, "[15]": {"system": "HT-1080", "assay": "HT1080 cell viability loss – fluorescence readout (AID 620)", "format": "functional, cell-based", "conditions": "Homo sapiens"}, "[16]": {"target": "T4, Microphthalmia-associated transcription factor (Homo sapiens, UniProt O75030)", "T4 sequence (O75030 whole entry)": "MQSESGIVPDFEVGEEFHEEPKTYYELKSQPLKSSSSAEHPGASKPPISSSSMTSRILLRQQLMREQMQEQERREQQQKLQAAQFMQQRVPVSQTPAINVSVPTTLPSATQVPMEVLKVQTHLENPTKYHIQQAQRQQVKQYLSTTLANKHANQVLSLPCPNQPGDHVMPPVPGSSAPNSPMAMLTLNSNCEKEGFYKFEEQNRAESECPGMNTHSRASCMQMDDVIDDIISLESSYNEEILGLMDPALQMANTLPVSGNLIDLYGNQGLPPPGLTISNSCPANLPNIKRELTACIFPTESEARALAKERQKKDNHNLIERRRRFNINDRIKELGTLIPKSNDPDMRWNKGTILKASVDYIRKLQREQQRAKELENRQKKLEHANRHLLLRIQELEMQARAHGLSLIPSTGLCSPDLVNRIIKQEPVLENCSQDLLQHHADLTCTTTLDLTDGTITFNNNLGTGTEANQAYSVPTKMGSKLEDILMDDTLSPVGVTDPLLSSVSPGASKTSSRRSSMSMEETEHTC", "assay": "reducers of TRPM1 reporter luminescence, concentration series – cell-based, SK-MEL-5, cherry-picked, set 3, MITF inhibitor project, dose response (AID 493073);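 also: SK-MEL-5 melanoma cells with luciferase driven by the MITF target TRPM1 promoter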", "format": "functional"}, "[17]": {"target": "Voltage-gated inwardly rectifying potassium channel KCNH2 (Homo sapiens, UniProt Q12809)", "sequence (Q12809 whole entry)": "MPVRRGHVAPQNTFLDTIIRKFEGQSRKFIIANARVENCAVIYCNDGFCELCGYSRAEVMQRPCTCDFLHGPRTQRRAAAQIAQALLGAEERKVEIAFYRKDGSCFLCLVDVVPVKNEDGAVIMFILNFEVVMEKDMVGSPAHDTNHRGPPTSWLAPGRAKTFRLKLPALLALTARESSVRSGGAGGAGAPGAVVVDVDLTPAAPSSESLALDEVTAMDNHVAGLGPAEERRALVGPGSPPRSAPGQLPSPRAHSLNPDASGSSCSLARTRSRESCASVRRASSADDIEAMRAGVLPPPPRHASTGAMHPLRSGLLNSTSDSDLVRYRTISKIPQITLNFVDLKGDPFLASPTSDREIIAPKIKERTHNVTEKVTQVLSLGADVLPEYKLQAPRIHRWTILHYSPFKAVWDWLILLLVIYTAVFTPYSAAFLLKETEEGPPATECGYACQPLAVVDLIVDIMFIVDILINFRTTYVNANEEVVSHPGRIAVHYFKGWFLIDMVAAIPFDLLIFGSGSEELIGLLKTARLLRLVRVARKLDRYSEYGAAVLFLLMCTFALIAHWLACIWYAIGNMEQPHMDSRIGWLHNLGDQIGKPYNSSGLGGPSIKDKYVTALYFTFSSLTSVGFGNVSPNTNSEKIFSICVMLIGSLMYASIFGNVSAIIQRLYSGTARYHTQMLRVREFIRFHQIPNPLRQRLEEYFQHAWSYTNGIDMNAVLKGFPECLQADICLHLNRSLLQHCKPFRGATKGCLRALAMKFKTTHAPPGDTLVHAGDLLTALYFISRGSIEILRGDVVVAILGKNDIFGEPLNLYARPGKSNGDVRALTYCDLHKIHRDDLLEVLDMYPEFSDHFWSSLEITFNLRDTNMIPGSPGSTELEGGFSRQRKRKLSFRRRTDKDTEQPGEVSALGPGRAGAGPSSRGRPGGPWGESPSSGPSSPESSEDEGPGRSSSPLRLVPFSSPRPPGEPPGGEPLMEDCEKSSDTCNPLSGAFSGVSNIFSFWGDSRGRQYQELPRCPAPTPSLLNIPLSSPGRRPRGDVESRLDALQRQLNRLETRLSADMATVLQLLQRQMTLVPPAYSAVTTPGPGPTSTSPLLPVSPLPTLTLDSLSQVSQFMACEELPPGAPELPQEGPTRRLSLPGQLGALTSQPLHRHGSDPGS", "conditions": "Potency"}}, "note": "The source made the active and inactive calls."}
{"smiles": "CCN(c1ccccc1)S(=O)(=O)c1ccc2ncc(C(=O)NCCOC)c(O)c2c1", "values": [{"measurement": "IC50", "setting": "[1]", "result": "27.9 µM (active)"}]}
{"smiles": "Cc1c(Cl)cccc1NC(S)=NCC(c1cccnc1)N(C)C", "note": "(stereo unspecified)", "values": [{"measurement": "EC50", "setting": "[2]", "result": "0.0013 µM (active)"}]}
{"smiles": "Cn1c(Cc2ccccc2)nnc1SCC(=O)c1cccs1", "values": [{"measurement": "IC50", "setting": "[1]", "result": "> 50 µM (not active)"}]}
{"smiles": "O=C(NCc1ccccn1)c1cn(Cc2ccccc2)nn1", "values": [{"measurement": "AC50", "setting": "[3]", "result": "> 60 µM (inactive)"}]}
{"smiles": "CN(C)C(CNC(=O)c1ccc2[nH]cnc2c1)c1ccccc1", "note": "(stereo unspecified)", "values": [{"measurement": "EC50", "setting": "[2]", "result": "0.473 µM (active)"}]}
{"smiles": "COc1cc(CNCCO)cc(Cl)c1OCc1ccc(Cl)cc1Cl", "values": [{"measurement": "CC50", "setting": "[4]", "result": "12.5 µM (active)"}, {"measurement": "CC50", "setting": "[5]", "result": "15.1 µM (active)"}, {"measurement": "CC50", "setting": "[6]", "result": "14.1 µM (active)"}, {"measurement": "IC50", "setting": "[7]", "result": "24.5 µM (active)"}, {"measurement": "AC50", "setting": "[8]", "result": "8.94 µM (active)"}, {"measurement": "AC50", "setting": "[9]", "result": "13.9 µM (active)"}, {"measurement": "AC50", "setting": "[10]", "result": "11.2 µM (active)"}, {"measurement": "AC50", "setting": "[11]", "result": "43.2 µM (active)"}, {"measurement": "AC50", "setting": "[12]", "result": "15.6 µM (active)"}]}
{"smiles": "Cc1ccnc(N/C=C(\\C#N)c2nc(-c3cccc(Br)c3)cs2)c1", "values": [{"measurement": "EC50", "setting": "[13]", "result": "0.761 µM (active)"}]}
{"smiles": "CCOC(=O)/C(=C/C=C1\\Sc2cc(OCC)c(OCC)cc2N1CC)C(C)=O", "values": [{"measurement": "EC50", "setting": "[13]", "result": "0.165 µM (active)"}]}
{"smiles": "CCc1ccc(-c2cc(C(=O)Nn3cnnc3)c3ccccc3n2)cc1", "values": [{"measurement": "EC50", "setting": "[14]", "result": "2.73 µM (active)"}, {"measurement": "EC50", "setting": "[15]", "result": "> 50 µM (not active)"}, {"measurement": "AC50", "setting": "[16]", "result": "12.5 µM (active)"}]}
{"smiles": "C[C@H](CO)N1C[C@H](C)[C@@H](CN(C)Cc2ccc3c(c2)OCO3)Oc2c(NC(=O)C3CCCCC3)cccc2C1=O", "values": [{"measurement": "AC50", "setting": "[3]", "result": "13.1 µM (active)"}]}
{"smiles": "COc1cc(CNC(=O)CCCCCCC(C)C)ccc1O", "note": "[DIHYDROCAPSAICIN]", "values": [{"measurement": "AC50", "setting": "[17]", "result": "35.5 µM (inconclusive)"}]}
